The values below come from patent US20250346579A1, “PYRIDAZINONE COMPOUND AND PREPARATION METHOD THEREFOR, PHARMACEUTICAL COMPOSITION THEREOF, AND APPLICATION THEREOF” (CHINA PHARMACEUTICAL UNIVERSITY, priority 2021, published 2025).

Read-outs that look alike come from different tables or passages of the source.

Data set [1] deals with T1, PARP7 (Homo sapiens, UniProt Q7Z3E1).
T1 construct: purchased BPS Bioscience
T1 sequence (Q7Z3E1 1-657): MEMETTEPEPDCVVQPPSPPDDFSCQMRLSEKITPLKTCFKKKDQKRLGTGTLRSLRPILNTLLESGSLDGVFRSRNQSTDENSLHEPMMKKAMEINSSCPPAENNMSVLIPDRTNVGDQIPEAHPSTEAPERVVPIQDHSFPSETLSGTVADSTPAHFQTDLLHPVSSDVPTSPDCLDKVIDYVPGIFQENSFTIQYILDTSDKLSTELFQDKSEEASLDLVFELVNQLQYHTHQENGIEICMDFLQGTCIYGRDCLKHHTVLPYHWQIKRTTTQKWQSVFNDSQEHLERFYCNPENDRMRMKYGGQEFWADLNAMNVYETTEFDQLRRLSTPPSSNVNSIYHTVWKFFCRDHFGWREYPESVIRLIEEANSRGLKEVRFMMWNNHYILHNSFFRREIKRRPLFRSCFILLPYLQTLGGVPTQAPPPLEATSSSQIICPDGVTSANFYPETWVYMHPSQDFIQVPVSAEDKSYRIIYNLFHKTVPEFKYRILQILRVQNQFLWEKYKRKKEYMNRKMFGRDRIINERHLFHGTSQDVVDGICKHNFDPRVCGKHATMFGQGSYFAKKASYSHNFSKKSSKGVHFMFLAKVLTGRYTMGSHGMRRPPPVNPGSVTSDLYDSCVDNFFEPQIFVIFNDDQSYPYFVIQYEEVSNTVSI
The experiment in a line: Inhibitory activity of compounds on PARP7 enzyme (PARP7 Chemiluminescent Assay Kit). It is filed as biochemical. How it is done:
Experimental materials: PARP7 Chemiluminescent Assay Kit, BPS Bioscience; DMSO, China National Pharmaceutical Group, Nivo, PerkinElmer.
(1) Preparation of Solutions and Buffers:
Preparation of 10×PBS: 720 mg of KH2PO4, 45 g of NaCl and 5.311 g of Na2HPO4·12H2O were weighed respectively and dissolved in 500 mL of deionized water, a system pH value was adjusted to 7.4, sterilization was performed at 121° C. for 30 min, and the system after cooling was placed at 4° C. for later use.
Preparation of 1×PBS: 10×PBS was diluted 10 times with deionized water, that is, 9 parts of deionized water was added to 1 part of 10×PBS for dilution.
Preparation of wash buffer: 1×PBS contained 0.05% Tween-20.
Preparation of 1×PARP buffer (prepared freshly before use): 10×PARP buffer was diluted 10 times with deionized water and placed on ice for later use.
(2) Preparation of Compound Working Solution Concentration:
According to test requirements, a compound to be tested is diluted with 100% DMSO to a desired concentration, and then diluted 10 times with 1×PARP buffer to prepare a 10× compound working solution.
a. 5× histone mixture was thawed on ice one day prior to the experiment;
b. preparation of 1× histone mixture: 1× histone mixture was prepared through the 5× histone mixture by using 1×PBS; and 25 μL of 1× histone mixture was taken from each well and transferred into a test well plate and incubated overnight at 4° C.;
c. 100 μL of Blocking buffer was taken from each well and added to the test well plate and incubated for 90 min at 25° C.;
d. after the incubation was completed, the liquid in the test well plate was spin-dried, and the test well plate was washed repeatedly for 3 times;
e. 2.5 μL of the compound working solution was taken from each well and added to the test well plate according to an experimental layout diagram; and 1×PARP buffer with a corresponding volume of 10% DMSO was added to positive control wells (Positive Control), and 1×PARP buffer of a corresponding volume was added to blank control wells (Blank);
f. after the enzyme was completely dissolved, an enzyme stock solution was diluted with 1×PARP buffer to 6 ng/μL;
g. 10 μL of enzyme solution was taken from each well and added to the test well plate, the blank control wells were added with the corresponding volume of 1×PARP buffer, and in which case, the enzyme amount was 60 ng per well. Note: this step needs to be performed on ice;
h. 12.5 μL of master mixture was added to each well of the test well plate (12.5 μL master mixture included 1.25 μL of 10×PARP buffer, 1.25 μL of Opti-PARP 10× Assay mixture and 10 μL of water); the test well plate was sealed and incubated at 25° C. for 60 min;
i. after the incubation was completed, the liquid in the test well plate was spin-dried, and the test well plate was washed repeatedly for 3 times;
j. Streptavidin-HRP in a kit was diluted 50 times with a Blocking buffer, 25 μL was taken from each well and added to the test well plate, and incubated at 25° C. for 30 min;
k. after the incubation was completed, the liquid in the test well plate was spin-dried, and the test well plate was washed repeatedly for 3 times;
l. ELISA ECL Substrate A and ELISA ECL Substrate B in the kit was mixed to obtain a mixed solution according to a ratio of 1:1, 50 μL of the mixed solution was added to each well of the test well plate, Nivo was used to perform Luminescence detection immediately, and a luminous value (RLU) was read; and
m. calculation of an enzyme rate: Enzyme Activity=(RLU(Sample)−RLU(Blank))/(RLU(Pos.Ctrl)−RLU(Blank))×100%; and enzyme inhibition rate=1−% Enzyme Activity, and specific results were shown in Table 1 below.

A short description of data set [2]: Pharmacokinetic study in SD rats. The format is in vivo. As to conditions: for AUC / Cmax / clearance / half-life: male, rat, supernatant of centrifuged blood. The method, then:
(§1) Experimental process: 12 male SD rats were selected, 6 of the rats were orally administrated (3 of them were administered with RBN-2397, and the remaining 3 were administered with I-A-1, at a dose of 10 mg/kg), 6 of the rats were administered intravenously (3 of them were administered with RBN-2397, and the remaining 3 were administered with I-A-1, at a dose of 1 mg/kg), blood samples were collected at 0 min, 2 min, 5 min, 10 min, 20 min, 30 min, 60 min, 2 h, 4 h, 6 h, and 8 h, respectively, and then centrifuged (at 3000 rpm for 5 min), a supernatant was collected and analyzed by LC-MS-MS, and results were analyzed by using WinNonlin Software.

Data set [3] is described as follows: Pharmacokinetic study in ICR mice. The settings on record: for AUC / Cmax / clearance / half-life: male, mouse, supernatant of centrifuged blood. It is filed as in vivo. How it is done:
as §1, with “ICR mice” for “SD rats”

In data set [4] the test system is CT26 cells. Kind of data set: In vivo pharmacodynamic study, CT26 subcutaneous tumors in BALB/c mice. The text has this:
BALB/c mice were subcutaneously inoculated with CT26 cells in the right abdominal skin to develop tumors. Four days after tumor inoculation, 24 mice having a tumor size ranging from 55-75 mm^3 (with an average tumor size of 63 mm^3) were selected and randomly divided into 4 groups based on their tumor volumes, with 6 mice in each group. Drug administration was started on the day following random grouping (the day of random grouping was identified as Day 0), a carrier (0.5% of methyl cellulose+0.2% of Tween 80), Compound RBN-2397 (500 mg/kg, once a day, intragastric administration for 14 consecutive days), Compound I-A-1 (100 mg/kg, once a day, intragastric administration for 14 consecutive days), Compound I-A-1 (50 mg/kg, twice a day, intragastric administration for 14 consecutive days) were administered respectively, and the tumor size was measured three times per week during an administration period.

For data set [5] the following is noted: in words, background; cited from earlier work.
Data set [6] concerns NCI-H1373 cells. The settings on record: NCI-H1373 xenograft; dose of >30 mg/kg orally once a day; cited from earlier work.

As for `C[C@@H](CN1CC(C(=O)N2CCN(c3ncc(C(F)(F)F)cn3)CC2)C1)Nc1cn[nH]c(=O)c1C(F)(F)F` [I-A-1, (S)-4-(trifluoromethyl)-5-((1-(3-(4-(5-(trifluoromethyl)pyrimidin-2-yl)piperazine-1-carbonyl)azetidin-1-yl)propan-2-yl)amino)pyridazin-3(2H)-one], the IC50 is < 100 nM in data set [1] (chemiluminescence, symbols defined as IC50 classes, read-out: 100 nM Inhibition Rate) and < 100 nM in data set [1] (summary of Table 1, read-out: enzyme inhibition IC50 values). Moreover, the CL in data set [2] (PO 10 mg/kg) is 62.9522 mL/min/kg. Moreover, the F in data set [2] (PO 10 mg/kg) came out at 46.8%; in data set [3] (PO 10 mg/kg, 10 mg/kg) it was 95.80%. Moreover, the pharmacokinetic properties entry in data set [2] (in words) and in data set [3] (in words) was “good pharmacokinetic properties” in each case. For the same compound, the AUC stood at 548 ng·h/mL in data set [2] (IV 1 mg/kg), 2560 ng·h/mL in data set [2] (PO 10 mg/kg), 591 ng·h/mL in data set [3] (IV 1 mg/kg) and 5660 ng·h/mL in data set [3] (PO 10 mg/kg). Besides, the Cmax in data set [2] (IV 1 mg/kg) worked out at 333 ng/mL; in data set [2] (PO 10 mg/kg), 564 ng/mL; in data set [3] (IV 1 mg/kg), 419 ng/mL; in data set [3] (PO 10 mg/kg), 2300 ng/mL. Further, the clearance was 30.4 mL/min/kg in data set [2] (IV 1 mg/kg) and 29 mL/min/kg in data set [3] (IV 1 mg/kg). Also, the half-life in data set [2] (IV 1 mg/kg) was 1.72 h; in data set [2] (PO 10 mg/kg), 2.57 h; in data set [3] (IV 1 mg/kg), 1.44 h; in data set [3] (PO 10 mg/kg) it was 1.74 h. The anti-tumor activity result in data set [4] (100 mg/kg once a day or 50 mg/kg twice a day, intragastric, 14 days, FIG. 2) is given as “significant anti-tumor activity”. For the same compound, the “anti-tumor effect compared with the positive drug RBN-2397” value in data set [4] (I-A-1 100 mg/kg/day vs RBN-2397 500 mg/kg once a day) is on record as “better anti-tumor effect at a lower dose”.
Turning to `C[C@@H](COCCC(=O)N1CCN(c2ncc(C(F)(F)F)cn2)CC1)Nc1cn[nH]c(=O)c1C(F)(F)F` [RBN-2397, reference compound], in data set [2] (PO 10 mg/kg), the CL is 381.342 mL/min/kg, the F was 12.4%, the AUC worked out at 415 ng·h/mL and the peak level (Cmax) was 295 ng/mL. In addition, in data set [2] (PO 10 mg/kg), the half-life is 0.75 h. In addition, in data set [2] (IV 1 mg/kg), the AUC stood at 333 ng·h/mL, the concentration peaked (Cmax) at 836 ng/mL, the clearance is 50.6 mL/min/kg and the half-life is 0.28 h. In data set [5], the “drug exposure and oral bioavailability in vivo” value is on record as “low”; the “in vivo clearance rate” value is listed as “high”. In data set [3] (PO 10 mg/kg), this compound showed an F of 25.67%, an AUC of 656 ng·h/mL, a Cmax of 1310 ng/mL and a half-life of 0.9 h. For the same compound, in data set [3] (IV 1 mg/kg), the AUC stood at 256 ng·h/mL, the Cmax turned out to be 757 ng/mL, the clearance is 67 mL/min/kg and the half-life is 0.15 h. Further, in data set [6], the anti-tumor effects entry was “significant anti-tumor effects”.

The AUC is the area under the concentration-time curve, a measure of exposure. One may read the Cmax as the peak of the concentration-time curve. One may read the clearance as the rate of elimination divided by the concentration. Lower therefore signals a low capacity for elimination. As usually defined, the half-life is the time needed for the level to fall by half in the phase considered. Read a high half-life as slow loss.
